Laboratory results taken from PubChem BioAssay (NCI).
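Exposure lasted 48 hours, with cells grown in 96-well plates and compounds tested at five concentrations. The concentration for full growth arrest is given as TGI.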

Experiments:
Experiment in all cases: inhibition of tumour cell growth, NCI panel, 48 h
DLD-1 colon = test system: DLD-1 colon
DMS 114 small cell lung = test system: DMS 114 small cell lung
DMS 273 small cell lung = test system: DMS 273 small cell lung
HOP-18 NSCLC = test system: HOP-18 NSCLC
KM20L2 colon = test system: KM20L2 colon
LXFL 529 NSCLC = test system: LXFL 529 NSCLC
RXF-631 renal = test system: RXF-631 renal
SNB-78 CNS = test system: SNB-78 CNS
M19-MEL melanoma = test system: M19-MEL melanoma

SMILES	TGI (DLD-1 colon) [µM]	TGI (DMS 114 small cell lung) [µM]	TGI (DMS 273 small cell lung) [µM]	TGI (HOP-18 NSCLC) [µM]	TGI (KM20L2 colon) [µM]	TGI (LXFL 529 NSCLC) [µM]	TGI (RXF-631 renal) [µM]	TGI (SNB-78 CNS) [µM]	TGI (M19-MEL melanoma) [µM]
NC(=O)OCC(COc1ccc(Cl)cc1)OC(=O)c1ccccc1Cl (centres undefined)	37.1	28.1	36.4	62.8	34.9	64.6	46	> 100	
COc1ccc(/C=C(\Cl)c2ccc(OC)c(OC)c2)cc1OC	> 100	> 100	> 100		> 100	> 100			> 100
CN(C(=O)C12C3C4C1C1C2C3C41I)C(C)(C)C (centres undefined)	> 100	> 100	> 100	> 100	> 100	> 100	> 100	> 100	> 100
CCCCCCn1c(SCC)c2ccccc2c1-c1nc(F)nc(F)n1	> 100	> 100	> 100		> 100	> 100		> 100	> 100
NCC1(N2CCOCC2)C2CCCC21CO (centres undefined)	> 100	> 100	> 100	> 100		> 100		> 100	> 100
CC(=O)/C(=C\c1ccco1)C(=O)Nc1ccccc1	> 100	> 100		> 100		> 100		> 100	> 100
COc1cc(NC(C)=O)c2[nH]c3c(C)cc(NC(C)=O)c(C)c3c2c1	> 100	> 100	> 100	> 100	> 100	> 100			> 100
c1ccc(Nc2nnc(CSc3nc(-c4ccccc4)c(-c4ccccc4)[nH]3)s2)cc1	> 100	81	43.4		48.5	53.3		79.9	28.6
O=P(O)(OCC(O)O)OCC(O)O	> 100	> 100	> 100	> 100	> 100	> 100	> 100	> 100	> 100
COc1cc(/C=C/C(=O)c2sc(-n3nc(-c4ccccc4)cc3-c3ccccc3)nc2C)ccc1O	> 100	> 100	> 100	> 100	> 100		> 100	> 100	> 100
COc1ccc(Br)c2c1CC(C(=O)O)CC2 (centres undefined)	> 100	> 100	> 100	> 100	> 100	> 100		> 100	
COc1cc(/C=C\c2ccccn2)cc(OC)c1OC	> 100	> 100	> 100	> 100	> 100	> 100	> 100	> 100	> 100
COC(=O)c1[nH]c(=S)[nH]c(=O)c1-c1ccc(Cl)cc1	> 50	> 50	> 50		> 50	> 50	> 50	> 50	> 50
C/C(=N\N)C(CN(C)C)C(c1ccccc1)c1c(O)c2ccccc2oc1=O (centres undefined)	> 100	> 100	> 100	> 100	> 100	> 100	> 100	> 100	> 100
Cn1c(O)c(C(=O)Nc2cccs2)c(=O)[nH]c1=S	73.9	35.9		8.34	34.1	40.8		47.7	44.3
CC#COP(=O)(OCC)OCC	> 100	> 100			> 100	> 100	> 100	> 100	> 100
CC1CC2OC(=O)C3CC(O)CC(=C23)[C@@]12C[C@@H](c1ccoc1)OC2=O (some centres undefined)	> 100		> 100	> 100	> 100	> 100		> 100	> 100
CCOC(=O)CSc1ccnc(=O)[nH]1		> 100	> 100		> 100	> 100		> 100	> 100
CCOC(C[C@H](O)[C@H]1COC(=S)S1)OCC		> 100	> 100		> 100	> 100			> 100
C/C(CN1C(=O)c2ccccc2C1=O)=N\NS(=O)(=O)c1ccc(Br)cc1	> 100	68.8	> 100	> 100	> 100	> 100		> 100	> 100
Cc1c2ccncc2cc2c1sc1ccncc12	15	21.6	11.1	> 100	25.7	28.1	> 40.9	40.9	16.6
NC(=S)NNC(=O)/C(=C/c1ccc(/C=C(\NC(=O)c2ccccc2)C(=O)NNC(N)=S)cc1)NC(=O)c1ccccc1	> 100	> 100	> 100	> 100	> 100	> 100		> 100	> 100
